{"source": "patent US20150157022A1", "about": "“S[…] CONTROL AND IMPROVED CROP TOLERANCE FROM COMBINATIONS OF 2,4-D-CHOLINE AND G[…] 2,4-D- AND GLUFOSINATE-TOLERANT SOYBEANS, CORN, COTTON” (Dow AgroSciences LLC, priority 2013, published 2015)", "key": {"[1]": {"system": "Sesbania exaltata (hemp sesbania, SEBEX)", "test": "Field trial, post-emergence weed control (% visual control), SEBEX", "format": "in vivo", "experimental": "(§1) These trials were conducted under field conditions in multiple states in the United States, including but not limited to Arkansas, Illinois, Indiana, Minnesota, Mississippi,\n(§2) Nebraska, Ohio, Oklahoma, Texas, South Carolina and South Dakota. […] Treatments were applied with small plot backpack sprayers, using pressurized air or carbon dioxide (CO2) as propellant. Pressure varied from 22-50 pounds per square inch (psi), with spray tips typically of a Flat Fan type applying water diluent at 15 gallons per acre (GPA). Boom sizes varied from 6.3-10 ft in width. Treatments were applied to soybean, cotton, corn or fallow crop land. Weed sizes varied, but all treatments were applied as post-emergence treatments to weeds from 2 leaf to 2 tiller growth stages varying from 2 to 15 inches in height. The weed spectrum included, but was not limited to, Amaranthus palmeri S. Wats. (Palmer amaranth, AMAPA), Conyza canadensis (L.) Cronq. (horseweed, ERICA), Salsola tragus L. (Russian thistle, SASKR) and Sesbania exaltata (hemp sesbania, SEBEX).\n(§3) The 2,4-D-choline salt formulation was a 456 g ae/L SL. […] All treatments were mixed in water at appropriate formulated product rates to achieve the desired rates as shown based on a unit area of application (hectare). Treatments were rated at 2 to 28 days after application (DAA) as compared to the untreated control plants. The trial sites had naturally occurring populations of weeds. The treated plots and control plots were rated blind at various intervals after application.\n(§4) Colby's equation was used to determine the herbicidal effects expected from the mixtures (Colby, S. R. Calculation of the synergistic and antagonistic response of herbicide combinations. Weeds 1967, 15, 20-22). A t-test (alpha=0.05) between Colby predictions and observed combinations was used to test for significant differences indicating synergy or antagonism using replicate data.\n(§5) The following equation was used to calculate the expected activity of mixtures containing two active ingredients, A and B:\n(§6) Expected=A+B−(A×B/100) • A=observed efficacy of active ingredient A at the same concentration as used in the mixture; • B=observed efficacy of active ingredient B at the same concentration as used in the mixture."}, "[2]": {"system": "Amaranthus palmeri S. Wats. (Palmer amaranth, AMAPA)", "test": "Field trial, post-emergence weed control (% visual control), AMAPA", "format": "in vivo", "experimental": "as §1, §2, §3, §4, §5, §6"}, "[3]": {"system": "Conyza canadensis (L.) Cronq. (horseweed, ERICA)", "test": "Field trial, post-emergence weed control (% visual control), ERICA", "format": "in vivo", "experimental": "as §1, §2, §3, §4, §5, §6"}, "[4]": {"system": "Salsola tragus L. (Russian thistle, SASKR)", "test": "Field trial, post-emergence weed control (% visual control), SASKR", "format": "in vivo", "experimental": "as §1, §2, §3, §4, §5, §6"}, "AAD12 Soybean (GLXMA)": {"system": "AAD12 Soybean (GLXMA)", "test": "Field crop tolerance trial in 2,4-D- and glufosinate-tolerant soybean (% visual injury, chlorosis, growth inhibition)", "experimental": "as §1, §2\n2,4-D- and glufosinate-tolerant soybeans, corn and cotton and optionally a glyphosate trait in a breeding (CP4 EPSPS) or a molecular stack (2mEPSPS) were used in all tolerance trials.\nas §3, with “application. […]” for “application.”"}}, "note": "Values joined by “and” are separate entries in the source; they are usually repeats but may differ in a detail not shown here. Identical values can stand only once. Counter-ions that a name gives are not always drawn.", "data": [{"smiles": "CP(=O)(O)CCC(N)C(=O)O", "note": "(stereo not shown) [Glufosinate-ammonium, ammonium (3-amino-3-carboxypropyl)(methyl)phosphinate]", "values": [{"measurement": "Mean % weed control", "setting": "[1]; 8 DAA, 542 g ae/ha", "result": 73.8, "unit": "%"}, {"measurement": "Mean % weed control", "setting": "[1]; 16 DAA, 542 g ae/ha", "result": 78.8, "unit": "%"}, {"measurement": "Mean % weed control", "setting": "[1]; 23 DAA, 542 g ae/ha", "result": 65.0, "unit": "%"}, {"measurement": "Mean % weed control", "setting": "[2]; 7 DAA, 542 g ae/ha", "result": 80.0, "unit": "%"}, {"measurement": "Mean % weed control", "setting": "[2]; 10 DAA, 542 g ae/ha", "result": 54.3, "unit": "%"}, {"measurement": "Mean % weed control", "setting": "[2]; 13 DAA, 542 g ae/ha", "result": 75.0, "unit": "%"}, {"measurement": "Mean % weed control", "setting": "[2]; 16 DAA, 542 g ae/ha", "result": 65.0, "unit": "%"}, {"measurement": "Mean % weed control", "setting": "[2]; 21 DAA, 542 g ae/ha", "result": 51.3, "unit": "%"}, {"measurement": "Mean % weed control", "setting": "[2]; 22 DAA, 542 g ae/ha", "result": 56.3, "unit": "%"}, {"measurement": "Mean % weed control", "setting": "[3]; 7 DAA, 542 g ae/ha", "result": 75.0, "unit": "%"}, {"measurement": "Mean % weed control", "setting": "[3]; 13 DAA, 542 g ae/ha", "result": 85.0, "unit": "%"}, {"measurement": "Mean % weed control", "setting": "[3]; 22 DAA, 542 g ae/ha", "result": 80.0, "unit": "%"}, {"measurement": "Mean % weed control", "setting": "[3]; 28 DAA, 542 g ae/ha", "result": 98.0, "unit": "%"}, {"measurement": "Mean % weed control", "setting": "[4]; 14 DAA, 542 g ae/ha", "result": 12.5, "unit": "%"}, {"measurement": "Mean % weed control", "setting": "[4]; 21 DAA, 542 g ae/ha", "result": 6.3, "unit": "%"}]}, {"smiles": "O=C(O)COc1ccc(Cl)cc1Cl", "note": "[2,4-D-Choline salt, 2-hydroxy-N,N,N-trimethylethanaminium 2-(2,4-dichlorophenoxy)acetate]", "values": [{"measurement": "Mean % weed control", "setting": "[1]; 8 DAA, 800 g ae/ha", "result": 32.5, "unit": "%"}, {"measurement": "Mean % weed control", "setting": "[1]; 16 DAA, 800 g ae/ha", "result": 42.5, "unit": "%"}, {"measurement": "Mean % weed control", "setting": "[1]; 23 DAA, 800 g ae/ha", "result": 38.8, "unit": "%"}, {"measurement": "Mean % weed control", "setting": "[2]; 7 DAA, 800 g ae/ha", "result": 47.5, "unit": "%"}, {"measurement": "Mean % weed control", "setting": "[2]; 10 DAA, 1065 g ae/ha", "result": 55.0, "unit": "%"}, {"measurement": "Mean % weed control", "setting": "[2]; 13 DAA, 1065 g ae/ha", "result": 45.0, "unit": "%"}, {"measurement": "Mean % weed control", "setting": "[2]; 16 DAA, 800 g ae/ha", "result": 62.5, "unit": "%"}, {"measurement": "Mean % weed control", "setting": "[2]; 21 DAA, 1065 g ae/ha", "result": 38.8, "unit": "%"}, {"measurement": "Mean % weed control", "setting": "[2]; 22 DAA, 800 g ae/ha", "result": 48.8, "unit": "%"}, {"measurement": "Mean % crop chlorosis", "setting": "AAD12 Soybean (GLXMA); 2 DAA, 2130 g ae/ha", "result": "0.0% and 2.3%"}, {"measurement": "Mean % crop injury", "setting": "AAD12 Soybean (GLXMA); 2 DAA, 2130 g ae/ha", "result": "3.5% and 5.0%"}, {"measurement": "Mean % crop chlorosis", "setting": "AAD12 Soybean (GLXMA); 3 DAA, 1065 g ae/ha", "result": 0.0, "unit": "%"}, {"measurement": "Mean % crop injury", "setting": "AAD12 Soybean (GLXMA); 3 DAA, 1065 g ae/ha", "result": 0.3, "unit": "%"}, {"measurement": "Mean % crop chlorosis", "setting": "AAD12 Soybean (GLXMA); 3 DAA, 2130 g ae/ha", "result": "0.0% and 1.3% and 0.8% and 0.5%"}, {"measurement": "Mean % crop injury", "setting": "AAD12 Soybean (GLXMA); 3 DAA, 2130 g ae/ha", "result": 0.3, "unit": "%"}, {"measurement": "Mean % crop chlorosis", "setting": "AAD12 Soybean (GLXMA); 4 DAA, 1065 g ae/ha", "result": 0.0, "unit": "%"}, {"measurement": "Mean % crop injury", "setting": "AAD12 Soybean (GLXMA); 4 DAA, 1065 g ae/ha", "result": 0.0, "unit": "%"}, {"measurement": "Mean % crop chlorosis", "setting": "AAD12 Soybean (GLXMA); 4 DAA, 2130 g ae/ha", "result": "0.0% and 0.7%"}, {"measurement": "Mean % crop injury", "setting": "AAD12 Soybean (GLXMA); 4 DAA, 2130 g ae/ha", "result": 1.0, "unit": "%"}, {"measurement": "Mean % crop injury", "setting": "AAD12 Soybean (GLXMA); 6 DAA, 1065 g ae/ha", "result": 4.0, "unit": "%"}, {"measurement": "Mean % crop injury", "setting": "AAD12 Soybean (GLXMA); 6 DAA, 2130 g ae/ha", "result": 4.0, "unit": "%"}, {"measurement": "Mean % crop chlorosis", "setting": "AAD12 Soybean (GLXMA); 7 DAA, 1065 g ae/ha", "result": 0.0, "unit": "%"}, {"measurement": "Mean % crop chlorosis", "setting": "AAD12 Soybean (GLXMA); 7 DAA, 2130 g ae/ha", "result": "0.0% and 1.7% and 1.3% and 3.0%"}, {"measurement": "Mean % crop growth inhibition", "setting": "AAD12 Soybean (GLXMA); 7 DAA, 2130 g ae/ha", "result": 1, "unit": "%"}, {"measurement": "Mean % crop injury", "setting": "AAD12 Soybean (GLXMA); 7 DAA, 2130 g ae/ha", "result": "4.0% and 13.3%"}, {"measurement": "Mean % crop chlorosis", "setting": "AAD12 Soybean (GLXMA); 8 DAA, 1065 g ae/ha", "result": 0.0, "unit": "%"}, {"measurement": "Mean % crop chlorosis", "setting": "AAD12 Soybean (GLXMA); 8 DAA, 2130 g ae/ha", "result": 0.0, "unit": "%"}, {"measurement": "Mean % crop chlorosis", "setting": "AAD12 Soybean (GLXMA); 9 DAA, 1065 g ae/ha", "result": 0.0, "unit": "%"}, {"measurement": "Mean % crop injury", "setting": "AAD12 Soybean (GLXMA); 9 DAA, 1065 g ae/ha", "result": 0.0, "unit": "%"}, {"measurement": "Mean % crop chlorosis", "setting": "AAD12 Soybean (GLXMA); 9 DAA, 2130 g ae/ha", "result": 0.0, "unit": "%"}, {"measurement": "Mean % crop injury", "setting": "AAD12 Soybean (GLXMA); 9 DAA, 2130 g ae/ha", "result": 0.0, "unit": "%"}, {"measurement": "Mean % crop chlorosis", "setting": "AAD12 Soybean (GLXMA); 13 DAA, 1065 g ae/ha", "result": 0.0, "unit": "%"}, {"measurement": "Mean % crop injury", "setting": "AAD12 Soybean (GLXMA); 13 DAA, 1065 g ae/ha", "result": 2.0, "unit": "%"}, {"measurement": "Mean % crop chlorosis", "setting": "AAD12 Soybean (GLXMA); 13 DAA, 2130 g ae/ha", "result": 0.0, "unit": "%"}, {"measurement": "Mean % crop injury", "setting": "AAD12 Soybean (GLXMA); 13 DAA, 2130 g ae/ha", "result": 3.3, "unit": "%"}, {"measurement": "Mean % crop chlorosis", "setting": "AAD12 Soybean (GLXMA); 14 DAA, 1065 g ae/ha", "result": 0.0, "unit": "%"}, {"measurement": "Mean % crop injury", "setting": "AAD12 Soybean (GLXMA); 14 DAA, 1065 g ae/ha", "result": "3.0% and 0.0%"}, {"measurement": "Mean % crop chlorosis", "setting": "AAD12 Soybean (GLXMA); 14 DAA, 2130 g ae/ha", "result": "0.0% and 0.8% and 1.3%"}, {"measurement": "Mean % crop growth inhibition", "setting": "AAD12 Soybean (GLXMA); 14 DAA, 2130 g ae/ha", "result": 0, "unit": "%"}, {"measurement": "Mean % crop injury", "setting": "AAD12 Soybean (GLXMA); 14 DAA, 2130 g ae/ha", "result": 2.3, "unit": "%"}, {"measurement": "Mean % crop chlorosis", "setting": "AAD12 Soybean (GLXMA); 15 DAA, 2130 g ae/ha", "result": 0.0, "unit": "%"}, {"measurement": "Mean % crop growth inhibition", "setting": "AAD12 Soybean (GLXMA); 15 DAA, 2130 g ae/ha", "result": 0, "unit": "%"}, {"measurement": "Mean % crop injury", "setting": "AAD12 Soybean (GLXMA); 15 DAA, 2130 g ae/ha", "result": 0.0, "unit": "%"}, {"measurement": "Mean % weed control", "setting": "[3]; 7 DAA, 1065 g ae/ha", "result": 40.0, "unit": "%"}, {"measurement": "Mean % weed control", "setting": "[3]; 13 DAA, 1065 g ae/ha", "result": 40.0, "unit": "%"}, {"measurement": "Mean % weed control", "setting": "[3]; 22 DAA, 1065 g ae/ha", "result": 40.0, "unit": "%"}, {"measurement": "Mean % weed control", "setting": "[3]; 28 DAA, 1065 g ae/ha", "result": 30.0, "unit": "%"}, {"measurement": "Mean % weed control", "setting": "[4]; 14 DAA, 1065 g ae/ha", "result": 67.5, "unit": "%"}, {"measurement": "Mean % weed control", "setting": "[4]; 21 DAA, 1065 g ae/ha", "result": 65.0, "unit": "%"}]}]}
